Experimental data reported in PMC7906020, “Trp-Containing Antibacterial Peptides Impair Quorum Sensing and Biofilm Development in Multidrug-Resistant Pseudomonas aeruginosa and Exhibit Synergistic Effects With Antibiotics” (Frontiers in Microbiology, 2021).

Tests used:
MRPA0108 biofilms = assay: Confocal laser scanning microscopy of biofilms (LIVE/DEAD staining); type: cell-based, Pseudomonas aeruginosa; conditions: erythromycin positive control, concentration not given; 24 h; control 8.7%
Experimental: Biofilms of MRPA0108 were visualized by confocal microscopy. Mid-log growth-phase bacteria were diluted to 1 × 10^7 CFU/ml. […] LB liquid medium and erythromycin were used as negative and positive controls, respectively. After incubation, the supernatant was removed, and the slides were washed and stained in a dark environment for 30 min using a LIVE/DEAD BacLight^TM Bacterial Viability Kit (Invitrogen, Life Technologies, Shanghai, China). The slides were washed three times and imaged with a confocal laser scanning microscope (LSM 710, Carl Zeiss, Germany) with excitation/emission wavelengths of 480/500 and 490/635 nm for SYTO9 and propidium iodide (PI), respectively. SYTO9 was used to indicate live bacteria, and PI was used to mark dead bacteria.

[1] = tested on: MRPA0108 swarming motility; assay: Swarming motility assay; type: cell-based, Pseudomonas aeruginosa; conditions: erythromycin positive control, concentration not given; 24 h, 37°C; vs control
Experimental: The swarming motility of MRPA0108 was assessed as described by [O’May and Tufenkji (2011)], with slight modifications. Briefly, swarming agar medium (1% tryptone, 0.5% NaCl, and 0.5% agar) was prepared in the presence or absence of peptide at a final concentration of 1/4 × MIC. MRPA0108 cells from an overnight culture grown on LB agar plates were placed directly on the agar surface (center) with a sterile toothpick so that the motility within the semisolid agar could be evaluated. After 24 h of incubation at 37°C, the diameters of swarming motility were observed and measured. LB liquid medium and erythromycin were used as negative control and positive controls, respectively. All experiments were repeated three times.

CC[C@H]1OC(=O)[C@H](C)[C@@H](O[C@H]2C[C@@](C)(OC)[C@@H](O)[C@H](C)O2)[C@H](C)[C@@H](O[C@@H]2O[C@H](C)C[C@H](N(C)C)[C@H]2O)[C@](C)(O)C[C@@H](C)C(=O)[C@H](C)[C@@H](O)[C@]1(C)O [erythromycin, reference compound]
percentage of dead/live cells in biofilm (MRPA0108 biofilms): 68.9% | reduction in swarming motility [1]: 85%
